From patent US12576051B2, “Methods and composition for treating respiratory obstructive diseases” (The Regents of the University of California, priority 2019, dated 2026)

Assays:
[1] = system: Porcine mucin 15% (W/V); test: Mucolytic activity: mucin viscosity by volume displaced through Pasteur pipette; type: biochemical; conditions: 10 mg/mL, Ringer buffer with bicarbonate (25 mM), 4 hours at 37° C.; versus without cysteamine
Description: Porcine mucin 15% (W/V) was incubated in Ringer buffer solution containing bicarbonate (25 mM) in the presence (+) or absence (−) of Cysteamine bitartrate (10 mg/mL), for 4 h at 37° C. Thereafter, equal volume of mucin solution from each condition were aspirated separately in a sterile Pasteur pipette. Changes in mucin viscosity was measured by the rapidity of the volume displaced toward the bottom of the pipette, as indicated in each panel (0-12 seconds). […] Porcine mucin 15% (W/V) was incubated in Ringer buffer solution containing bicarbonate (25 mM) in the presence (+) or absence (−) of cysteamine bitartrate (10 mg/mL), for 4 hours at 37° C. Changes in mucin viscosity was determined by the percentage of volume displaced as a function of time (0-12 seconds) through a vertical sterile Pasteur pipette tip at room temperature.

[2] = system: mucin released over the luminal airway surface; test: Mucin clearance on surface airway epithelium of isolated porcine airways (histology); conditions: 200 μM, 5 min, after bicarbonate (25 mM) and PGE2 (10 μM) 5 min at 37° C.
Description: Cysteamine facilitates clearance of mucin released over the luminal airway surface. Porcine airways were incubated in the presence of buffer containing bicarbonate (25 mM) and PGE2 (10 μM) for 5 min at 37° C. Thereafter, airways were subsequently incubated in the presence or absence of Cysteamine (200 μM) for an additional 5 min. Airways, were harvested and processed for histological analysis.
(§1) Biological specimens: Isolated native porcine airways were used as experimental model. Sections of open trachea tissue (approx. 2 cm^2) were carefully rinsed and cover small volume of NaHCO3-Ringer solution. Mucus secretion was stimulated with Prostaglandin E2 (PGE2, 10−6 M). Secreted mucus over the dissected open airways was carefully collected, aliquoted and immediately frozen at −80° C.

[3] = system: porcine gastric mucin extract (50 kDa band matched to Muc5ac mucin); test: Mucolytic activity on gastric mucin (electrophoresis, Coomassie stain); type: biochemical; conditions: summary of FIG. 7 and FIG. 8
Description: FIG. 7 presents the effects of cysteamine bitartrate and compound 646 on porcine gastric mucin extract. One hundred microliters of gastric mucin extract (5 mg/mL) was incubated with and without cysteamine bitartrate and compound 646 separately, at 37° C. for 60 minutes.
Gastric Mucin extract solution: Mucin was prepared as stock solution of 5 mg/mL in water, in NaCl Ringer (150 mM Na^+, 4.6 mM K^+, 1 mM Ca^2+, 1 mM Mg^2+, 150 mM Cl^−, 2.5 mM PO4^x− and 10 mM glucose) pH 7.2, and in HCO3-Ringer solution (150 mM Na^+, 4.6 mM K^+, 1 mM Ca^2+, 1 mM Mg^2+, […] HCO3^−, 2.5 mM PO4^x− and 10 mM glucose) pH 8.
(§2) Mucolytic activity on gastric mucin. One hundred microliters of mucin solution were incubated with Cysteamine bitartrate or compound 646 at final concentrations from 0 to 2 mM as indicated in the text. Mixture was incubated at 37° C. for 0-1 hr. Mucolytic activity was ended with 30 microliters of SDS-sample buffer solution. Forty-five microliters of each sample/well were separated in an electrophoresis gel 4-12% Tris-Glycine. After electrophoresis gels were stained with Coomassie Blue solution.
In vitro mucolytic activity of cysteamine bitartrate and compound 646. To evaluate the mucolytic activity of cysteamine bitartrate and 2-aminoethane-1-d-1-thiol hydrochloride (Compound 646), gastric mucin extract was used as a substrate that was treated with 200 and 400 μM of cysteamine bitartrate or Compound 646 respectively.
Mass spectrometry analysis of the isolated 50 kDa protein band. Muc5ac and Muc6 mucins are two major secretory mucins found in the stomach. In order identify which of these mucins were part of the 50 kDa band, mass spectrometry was utilized. Mass spectrometry analysis of the 50 kDa protein band identified 17 unique peptides that matched with porcine Muc5ac mucin.

[4] = system: porcine airway mucus; test: Mucolytic activity on porcine airway mucin (electrophoresis, Coomassie stain); type: biochemical; conditions: summary of FIG. 10
Description: FIG. 9 presents the effect of compound 646 on porcine airway mucus. Mucus collected from porcine upper airways diluted in NaHCO3-Ringer, was treated with different concentrations of compound 646 (0, 0.25. 0.5 and 1 mM), for 60 minutes at 37° C. In lane 1, representative protein pattern after electrophoresis protein separation of untreated porcine airway mucus (40 μg/well).
Airway mucus supernatant diluted in NaHCO3-Ringer was treated with or without cysteamine bitartrate under basic and acidic conditions at 37° C. for 60 minutes.
as §1
as §2, with “porcine airway mucin:” for “gastric mucin.”, “collected porcine airway supernatant was” for “mucin solution were”, “text.” for “text. Mixture was incubated at 37° C. for 0-1 hr.”, “45” for “Forty-five”
Mucolytic activity of synthetic compound 646. Respiratory airway mucus contained Muc5aC and Muc5B mucins. In order to determine whether compound 646 be used as a mucolytic agent for respiratory airways, supernatant of mucus collected from porcine airways was treated with compound 646 at different concentration (0-1 mM) for 1 h at 37° C.
Mucolytic activity of cysteamine bitartrate under basic and acidic conditions. To validate whether mucolytic activity of cysteamine bitartrate depends on changes of pH, airway mucus supernatant was incubated for 1 h at 37° C. with or without 2 mM cysteamine bitartrate diluted in NaHCO3. An additional airway mucus sample was treated with cysteamine bitartrate and supplemented with 4 μL of 0.1 N of acetic solution pH 4.5. […] The reduction, however, was approximately half of the decrease seen under acidic conditions.

[5] = system: mucin extracted from porcine guts; test: Effects of cysteamine at nM concentrations on mucin extracted from porcine guts; type: biochemical; conditions: FIG. 11
Text: FIG. 11 showing the effects of cysteamine at nM concentrations, on mucin extracted from porcine guts.

[6] = system: porcine airway; test: Ex vivo porcine airway models (summary statement)
Text: Abnormal mucus accumulation in airways has deleterious, and fatal consequence in patients suffering from respiratory obstructive diseases, such as cystic fibrosis (CF), COPD and asthma. Therefore, there is a need for therapies aimed at decreasing mucus accumulation to facilitate airway mucus clearance.

Structure (SMILES): NCCS [Cysteamine bitartrate, reference compound]
- displaced volume percentage of porcine mucin as a function of time (0-12 seconds) [1]: noticeably reduced
- mucin clearance on airway surface epithelium [2]: cleared from the luminal surface
- anti-mucin effect against gastric mucin, Muc5ac in particular [3]: anti-mucin effect against gastric mucin
- influence of acidic conditions on mucolytic effect [4]: enhanced when acidic conditions are used
- dose dependence of mucolytic effect [5]: dose dependent
- accumulation of viscous mucus and mucociliary clearance [6]: prevented accumulation of viscous mucus and improves mucociliary clearance
